In ChEMBL document CHEMBL5724914, “Linking interpersonal differences in gut microbiota composition and drug biotransformation activity” (2024):

Key:
[1] = (§1) The drug is tested on WLS-098 corresponding to human gut metagenome with ENA study accession number: PRJEB37062 and ENA sample accession number: ERS12561754 for biotransformation under anaerobic condition. The drug concentrations were measured over 9 timepoints collected between 0 and 24 hours of incubation by liquid-chromatography-coupled mass spectrometry (LC–MS); conditions: 2 µM
[2] = as §1, with “Z-025” for “WLS-098”, “rabbit” for “human”, “ERS12561824” for “ERS12561754”; conditions: 2 µM
[3] = as §1, with “Z-028” for “WLS-098”, “mouse” for “human”, “ERS12561827” for “ERS12561754”; conditions: 2 µM
[4] = human gut metagenome, 24 h, 2 µM
[5] = human gut metagenome, 24 h, 2 µM; remark: listed apart in the source
[6] = human gut metagenome, 24 h, 2 µM; remark: listed apart in the source
[7] = as §1, with “WLS-069” for “WLS-098”, “ERS12561748” for “ERS12561754”; conditions: 2 µM
[8] = human gut metagenome, 24 h, 2 µM; remark: listed apart in the source
[9] = as §1, with “WLS-010” for “WLS-098”, “ERS12561743” for “ERS12561754”; conditions: 2 µM
[10] = human gut metagenome, 24 h, 2 µM; remark: listed apart in the source
[11] = as §1, with “WLS-006” for “WLS-098”, “ERS12561741” for “ERS12561754”; conditions: 2 µM
[12] = as §1, with “Z-003” for “WLS-098”, “pig” for “human”, “ERS12561803” for “ERS12561754”; conditions: 2 µM
[13] = human gut metagenome, 24 h, 2 µM; remark: listed apart in the source
[14] = human gut metagenome, 24 h, 2 µM; remark: listed apart in the source
[15] = as §1, with “Z-021” for “WLS-098”, “to” for “to human gut”, “ERS12561820” for “ERS12561754”; conditions: 2 µM
[16] = as §1, with “Z-006” for “WLS-098”, “mouse” for “human”, “ERS12561806” for “ERS12561754”; conditions: 2 µM
[17] = as §1, with “Z-013” for “WLS-098”, “rabbit” for “human”, “ERS12561813” for “ERS12561754”; conditions: 2 µM
[18] = human gut metagenome, 24 h, 2 µM; remark: listed apart in the source
[19] = human gut metagenome, 24 h, 2 µM; remark: listed apart in the source
[20] = as §1, with “Z-020” for “WLS-098”, “rabbit” for “human”, “ERS12561819” for “ERS12561754”; conditions: 2 µM
Also: call rule not given here.

## Cc1ccc(-c2nc3ccc(C)cn3c2CC(=O)N(C)C)cc1 [ZOLPIDEM]
[1]
  Bacterial Biotransformation: Compound metabolized
[2]
  Bacterial Biotransformation: Compound NOT metabolized
[3]
  Bacterial Biotransformation: Compound NOT metabolized
[4]
  Bacterial Biotransformation: Compound NOT metabolized
[5]
  Bacterial Biotransformation: Compound metabolized
[6]
  Bacterial Biotransformation: Compound NOT metabolized
[7]
  Bacterial Biotransformation: Compound NOT metabolized
[8]
  Bacterial Biotransformation: Compound metabolized
[9]
  Bacterial Biotransformation: Compound NOT metabolized
[10]
  Bacterial Biotransformation: Compound NOT metabolized
[11]
  Bacterial Biotransformation: Compound NOT metabolized
[12]
  Bacterial Biotransformation: Compound metabolized
[13]
  Bacterial Biotransformation: Compound NOT metabolized
[14]
  Bacterial Biotransformation: Compound NOT metabolized
[15]
  Bacterial Biotransformation: Compound NOT metabolized
[16]
  Bacterial Biotransformation: Compound NOT metabolized
[17]
  Bacterial Biotransformation: Compound NOT metabolized
[18]
  Bacterial Biotransformation: Compound metabolized
[19]
  Bacterial Biotransformation: Compound metabolized
[20]
  Bacterial Biotransformation: Compound NOT metabolized
